Measurements: patent US9499553B2 (CHUGAI SEIYAKU KABUSHIKI KAISHA, priority 2013, dated 2016)

Assays:
human PiT-2 = target: T1, human PiT-2 (Homo sapiens, UniProt Q08357); assay: Inhibitory effect on 33PO4 uptake into human PiT-2-expressing CHO cells; type: cell-based; conditions: pH 6.5, read-out: IC50 against 33PO4 uptake into human PiT-2-expressing cells
T1 construct: expressed in transfected cells; host or cells: CHO cells
T1 sequence (Q08357 1-652): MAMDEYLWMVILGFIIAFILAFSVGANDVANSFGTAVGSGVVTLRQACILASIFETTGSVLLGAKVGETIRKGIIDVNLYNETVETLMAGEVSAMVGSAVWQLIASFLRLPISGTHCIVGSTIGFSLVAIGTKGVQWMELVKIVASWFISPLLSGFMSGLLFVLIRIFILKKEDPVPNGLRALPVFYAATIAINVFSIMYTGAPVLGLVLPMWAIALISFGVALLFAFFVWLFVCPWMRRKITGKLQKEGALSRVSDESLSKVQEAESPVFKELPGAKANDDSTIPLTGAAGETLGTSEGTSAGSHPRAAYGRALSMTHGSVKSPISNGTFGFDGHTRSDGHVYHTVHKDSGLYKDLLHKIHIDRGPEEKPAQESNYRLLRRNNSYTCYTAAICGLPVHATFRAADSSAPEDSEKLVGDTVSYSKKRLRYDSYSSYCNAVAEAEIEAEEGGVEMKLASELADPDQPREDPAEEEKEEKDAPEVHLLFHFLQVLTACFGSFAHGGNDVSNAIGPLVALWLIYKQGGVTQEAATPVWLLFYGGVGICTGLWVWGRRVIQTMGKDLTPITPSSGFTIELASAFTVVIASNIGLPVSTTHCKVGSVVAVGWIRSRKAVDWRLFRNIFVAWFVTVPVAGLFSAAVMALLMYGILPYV
How it was run: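 CHO cells transfected with human PiT-2 or empty vector, then exposed to ^33PO4 at room temperature after compound preincubation. Uptake counted by scintillation. Inhibition computed from PiT-2 minus vector-cell uptake, relative to the DMSO control.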

human NaPi-IIb = target: T2, human NaPi-IIb (Homo sapiens, UniProt O95436); assay: Inhibitory effect on 33PO4 uptake into human NaPi-IIb-expressing CHO cells; type: cell-based; conditions: read-out: IC50
T2 construct: expressed in transfected cells
T2 sequence (O95436 1-690): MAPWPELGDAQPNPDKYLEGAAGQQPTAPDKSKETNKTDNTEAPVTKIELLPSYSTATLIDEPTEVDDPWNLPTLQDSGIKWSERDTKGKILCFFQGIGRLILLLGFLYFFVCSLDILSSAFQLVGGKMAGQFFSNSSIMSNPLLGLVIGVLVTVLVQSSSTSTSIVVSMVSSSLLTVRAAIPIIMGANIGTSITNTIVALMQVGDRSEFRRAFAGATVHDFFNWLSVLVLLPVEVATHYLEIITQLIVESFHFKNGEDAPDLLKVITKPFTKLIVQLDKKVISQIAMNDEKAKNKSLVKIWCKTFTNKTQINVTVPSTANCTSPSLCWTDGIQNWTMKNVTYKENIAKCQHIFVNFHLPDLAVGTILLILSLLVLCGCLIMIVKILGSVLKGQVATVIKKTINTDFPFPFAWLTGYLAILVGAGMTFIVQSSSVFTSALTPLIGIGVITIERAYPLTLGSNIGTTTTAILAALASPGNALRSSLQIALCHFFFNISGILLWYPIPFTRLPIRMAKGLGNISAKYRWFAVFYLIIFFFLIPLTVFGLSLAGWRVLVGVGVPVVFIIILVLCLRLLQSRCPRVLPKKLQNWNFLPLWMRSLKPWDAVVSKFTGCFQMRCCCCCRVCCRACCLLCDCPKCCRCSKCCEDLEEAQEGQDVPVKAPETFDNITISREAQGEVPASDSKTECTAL
How it was run: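 Stable human NaPi-IIb CHO line (G418-selected), plated and cultured overnight; ³³PO4 added in buffer A and uptake run at room temperature. Cells washed with ice-cold buffer A, then uptake counted by liquid scintillation.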

IC50 (human PiT-2): 2.6 µM | IC50 (human NaPi-IIb): 8.9 µM
Structure (SMILES): COCCN(C)CCOc1ccc(CN2C(=O)C(C(=O)Nc3ccc(C(F)(F)F)cc3-c3cc(C(F)(F)F)ncn3)=C(O)C3(CCCC3)N2C)c(F)c1F [Example 14, 7-[[2,3-Difluoro-4-[2-[2-methoxyethyl(methyl)amino]ethoxy]phenyl]methyl]-10-hydroxy-6-methyl-8-oxo-N-[4-(trifluoromethyl)-2-[6-(trifluoromethyl)pyrimidin-4-yl]phenyl]-6,7-diazaspiro[4.5]dec-9-ene-9-carboxamide]
